# Source: patent US7666677B2, “Production of stilbenes in plant hairy root cultures” (priority 2006, dated 2010)
# “And” between values parts separate entries of the source, which are not always exact repeats. Identical values can stand only once.
# Assays:
# [1] = Solubility of resveratrol in organic solvents; type: physicochemical
# Description: Qualitative analyses of elicited peanut hairy root cultures. In an effort to rapidly assess the various hairy root lines for resveratrol production and secretion into the culture medium, we adapted a thin layer chromatographic method (TLC) that leverages the fluorescent nature of resveratrol at defined excitation wavelengths (Nepote et al., 2004). In a preliminary experiment, the culture medium was lyophilized to completeness and the dried medium was resuspended in methanol. This extract produced a very viscous solution which was difficult to resolve by TLC. In addition, the high content of carbohydrates in this sample appeared to bind the phenolic compounds (i.e. resveratrol). In an effort to overcome these issues, we optimized the purification of resveratrol in the culture medium by determining the solubility of resveratrol in various organic solvents. […] Initial analyses of the ethyl acetate extracts of hairy root media were compared by TLC to pure authentic references standards of trans-resveratrol and piceid. […] Andru II hairy root lines tested. The strongest fluorescent chemical was detected in the medium of sodium acetate-elicited hairy roots and generated an Rf of 0.83 corresponding to that of authentic trans-resveratrol. […]
# [2] = system: hairy root cultures of peanut cv. Andru II; assay: Elicitation of peanut hairy root cultures, TLC/HPTLC of ethyl acetate extracts of the medium; type: cell-based, Arachis hypogaea; conditions: for fluorescent compounds induced in culture medium (TLC, UV 365 nm): all cv. Andru II hairy root lines tested, 12-day cultures, 600 μM copper sulfate or 10.2 mM sodium acetate; for fluorescent compounds induced in culture medium (TLC, UV 365 nm) / fluorescent products induced in culture medium (TLC): 24 hours; for fluorescent products induced in culture medium (TLC): line 2, 12-day culture, sodium acetate 10.2 mM, chitosan 10 mg/L, copper sulfate 600 μM, laminarin 1 mg/ml, cellulase 1 or 10 μg/ml; for color change of the root tissue and medium: lines 2, 3, 5 and 6 of cv. Andru II, elicitors applied 24 hours
# Experimental: Establishment of hairy root cultures. Seeds of peanuts (Arachis hypogaea) cvs. Andru II and Hull (kindly provided by Dr. Daniel Gorbet, University of Florida) were surface sterilized as follows. Seeds were presoaked for 2 minutes in sterile water containing 0.003% Ivory™ detergent; immersed for 15 minutes in sterilization solution (50% Clorox™, 0.003% Ivory™ detergent) and rinsed in sterile water. To minimize Chlorox™ damage to the embryo, the test was aseptically removed and seeds were further rinsed in two changes of sterile water over a 15 minute period. Disinfected seeds were placed individually on plates containing B5 medium to allow emergence of the radicle and to screen for viable healthy seedlings. Germinated seedlings were transferred to Magenta™ boxes containing B5 medium and allowed to grow in continuous light at 28° C. for 15 to 21 days. Explants used for hairy root production were harvested following expansion of two true leaves.
# Cotyledon, hypocotyl, leaf blade, stem and petiole explants were evaluated. Whole, intact plantlets were also tested. […] Intact seedlings and isolated explants were then evaluated for response to Agrobacterium infection. Three strains of Agrobacterium were tested: A. rhizogenes ATCC 15834, A. rhizogenes R1000 and A. tumefaciens EHA105 containing pRYG (containing rolA, rolB and rolC genes, Komarnytsky et al., 2004) plasmid. The latter plasmid was kindly provided by Dr. Ilya Raskin (Rutgers University, New Jersey) and mobilized into A. tumefaciens by freeze-thaw method (Holsters et al., 1978). Intact seedlings were inoculated with agrobacteria at the stem, petiole, or cotyledonary node. All other isolated explants were inoculated via epidermal incisions as described before (Medina-Bolivar et al., 2003; Medina-Bolivar and Cramer, 2004). Inoculated intact seedlings and explants were maintained in B5 medium plates under constant light at 28° C. Hairy roots developed at the inoculation site were harvested and transferred to B5 medium plates containing 600 mg/l cefotaxime, and maintained at 28° C. under continuous darkness. Roots were subcultured twice in this medium prior to transfer to antibiotic-free medium. Liquid hairy root cultures were established by inoculating ten 1-cm root tips into 250 ml flasks containing 50 ml of B5 medium. Roots were subcultured every 2 weeks and maintained on an orbital shaker at 90 rpm, 28° C. and continuous darkness.
# (§1) Elicitation of hairy root cultures. […] All elicitors were dissolved in water and filter sterilized, except for chitosan which was dissolved in 1 M acetic acid. Following elicitation, all media was collected and frozen at −20° C. All root tissue was collected, fresh weight recorded and roots then rapidly frozen in liquid nitrogen prior to storage at −80° C. Controls included hairy root cultures incubated 24 hours with equivalent volumes of water or acetic acid as well as non-elicited media samples collected from the 12-day hairy root cultures prior to initiating the elicitation procedure. […] Media and root tissue were collected, processed and stored as outlined above.
# (§2) Extraction of resveratrol from culture medium. Media samples were thawed (50 ml) and partitioned with 30 ml ethyl acetate in a separatory funnel. The organic phase was recovered and dried to completeness under nitrogen stream using a RapidVap N2 evaporation system (Labconco) at 40° C. and 40% rotor speed. These dried samples were resuspended in 50 μl of ethyl acetate for further analysis.
# Qualitative TLC analysis. Aliquots of the extracts and pure, authentic standards of trans-resveratrol (Sigma Co, St. Louis, Mo.), polydatin—same chemical as piceid—(ChromaDex, Santa Ana, Calif.), pterostilbene (Sigma) and piceatannol (Sigma) were spotted on a 20×20 cm silica gel 60 CF254 TLC plates (Merck) or a 10×10 silica gel 60 CF254 HPTLC plates (Merck).
# [3] = system: peanut hairy roots derived from the Hull cultivar; conditions: 10.2 mM sodium acetate, 24 hours, medium extract
# Experimental: Using the materials and methods outlined above, resveratrol and resveratrol derivatives were elicited in the peanut hairy roots derived from the Hull cultivar. […] Control roots were not elicited. Elicited hairy root of peanut cv. Andru II (line pRYG-J) and cv. Hull s were cultured in B5 medium. […] Analysis was done under UV light (254 and 365 nm).
# [4] = system: hairy roots of muscadine grape; conditions: 10.2 mM sodium acetate, 24 hours, medium extract
# Experimental: PCR analyses of hairy roots of muscadine grape (Vitis rotundifolia) cvs. Roots were analyzed for the presence of rol C and aux 2 genes. Hairy roots were cultured in B5 medium. […] Analysis was done under UV light (365 nm).
# [5] = system: hairy root cultures of peanut, line 2
# Experimental: as §1, §2
# Quantitative analysis of resveratrol and pterostilbene by GC-MS. Dried medium or root tissue extracts (0.1 mg) were derivatized with 500 μL of a mixture of bis (trimethylsilyl)trifluoroacetamide:dimethyl formamide (1:1), heated at 70° C. for 40 min. After cooling to room temperature, samples were analyzed by gas chromatography/mass spectrometry (GC-MS) on a JEOL GCMate II system (JEOL USA, Inc., USA). […] The GC capillary column used was DB-5 (0.25 mm i.d., 0.25 […], 30 m length; Agilent Technologies, USA). The carrier gas was ultra high purity helium (nexAir, USA), 1 mL/min flow rate. The inlet (splitless), GC interface, and ion chamber temperatures were 250° C., 250° C., and 230° C., respectively. The injection volume was 2 μL.
# Quantitative analysis of resveratrol and pterostilbene by GC-MS. […] Cis- and trans-resveratrol were monitored for m/z 444 (and 429, 207, 147 as qualifier ions). Cis- and trans-pterostilbene were monitored for m/z 328 (and 313, 296, 156 as qualifier ions). Quantitation was performed using external standards of a commercial sample of trans-resveratrol (Sigma) and a synthetic sample of trans-pterostilbene (synthesized from methylation of resveratrol). The cis isomers were obtained by UV-irradiation (λ 306 nm) of an ethanolic solution the trans isomers (1 mg/mL) for 24 hours.
# Laboratory recovery of stilbenes. […] Therefore we have calculated resveratrol recoveries based on the dry weight (DW) of the ethyl acetate extract of the culture media.
# [6] = system: hairy root cultures of N. benthamiana
# Description: Seeds of Nicotiana benthamiana were surface sterilized and germinated on MS semi-solid medium. Axillary nodes were harvested from the axenic seedlings and used to establish plantlets. The latter were then micropropagated in MS medium and leaves from these plantlets were used as explants for Agrobacterium rhizogenes inoculations. Leaves were harvested from 2-3 week old plantlets and placed on B5 medium. The leaves were inoculated in the midrib with A. rhizogenes ATCC 15834. Two to 3 weeks after inoculation hairy roots initiated at the inoculation site. The roots were then transferred to B5 medium with cefotaxime to eliminate agrobacteria. After several subcultures in this medium, the roots were transferred to antibiotic-free B5 medium. Confirmation of transformation with A. rhizogenes was done by PCR. […]
# To test for elicitation of stilbenes (pinosylvin, resveratrol and their derivatives), hairy root cultures of N. benthamiana lines 3NB, 4NB, 5NB and 6NB were grown for either 2 or 3 weeks as described above. […] Stilbenes were detected with a coupled diode away and fluorescence (excitation 330 nm; emission 374 nm) detector.
# Further analyses were conducted by reverse phase HPLC. […] Stilbenes were detected with coupled diode array and fluorescence (excitation 330 nm; emission 374 nm) detectors. […] These compounds were further analyzed by HPLC-ESI-mass spectrometry.
# [7] = line 2, 15-day culture, 48 hours after elicitation
molecule,measurement,setting,value
"Oc1ccc(/C=C/c2cc(O)cc(O)c2)cc1 [resveratrol, trans-3,4′,5-trihydroxystilbene]",solubility of resveratrol in ethyl acetate,[1],good solubility
O=S(=O)([O-])[O-].[Cu+2] [copper sulfate],"fluorescent compounds induced in culture medium (TLC, UV 365 nm)",[2],induced production of blue fluorescent compounds
same,fluorescent products induced in culture medium (TLC),[2],induced a fluorescent chemical of Rf 0.73
same,color change of the root tissue and medium,[2],induced the browning on the tissue and of the medium
cellulase,fluorescent products induced in culture medium (TLC),[2],no fluorescent chemicals were detected
CC(=O)[O-].[Na+] [sodium acetate],production of resveratrol and derivatives (HPTLC),[3],induced the production of resveratrol and derivatives
same,"fluorescent compounds induced in culture medium (TLC, UV 365 nm)",[2],induced production of blue fluorescent compounds
same,fluorescent products induced in culture medium (TLC),[2],induced two products
same,"presence of resveratrol in culture medium, time course",[2]; [7],decreased
same,"pterostilbene levels in culture medium, time course",[2]; [7],increased
same,"trans-resveratrol and pterostilbene levels in culture medium, time course","[2]; line 2, 15-day culture, 72 hours post elicitation",decreased
same,"sodium acetate concentration with the most effective response (dose response, HPTLC)","[2]; line 2, 24 hours, 0 to 51 mM tested",about 10 mM
same,color change of the root tissue and medium,[2],did not affect the color of the roots
same,elicitation of resveratrol and derivatives (HPTLC),[4],achieved
same,increase of resveratrol above non-elicited culture extracts,[5]; culture medium extracts,~60 fold
same,"cis-resveratrol levels in elicited cultures, root tissue (average)",[5]; elicited cultures,10 ng/mg root tissue extract
same,trans-resveratrol remaining in the root tissue,[5]; elicited cultures,0.2-1.1 μg/mg extract DW
same,"trans-Resveratrol, Medium","[5]; elicited cultures, ethyl acetate extract of medium, mean of two determinations",97992 ng per mg extract and 85282 ng per mg extract and 50339 ng per mg extract
same,"cis-Resveratrol, Root tissue","[5]; elicited cultures, extract of root tissue, mean of two determinations",10 ng per mg extract
same,production rate of trans-resveratrol per gram DW of root tissue,[5]; estimating 6 mg medium ethyl acetate extract per gram root tissue DW,300 to 588 µg
same,share of total trans-resveratrol secreted into the culture medium,[5]; sodium acetate elicitation,approximately 99%
same,induced compound by reverse phase HPLC,[6]; 24 and 48 hours after elicitation,induced production of a major fluorescence compound
same,production and secretion of stilbene-like fluorescent compounds (HPTLC),"[6]; lines 3NB, 4NB, 5NB, 6NB, 10.2 mM sodium acetate, 24 or 48 hours",induced production and secretion of compounds with fluorescent characteristics of stilbene compounds
chitosan,fluorescent products induced in culture medium (TLC),[2],induced the two products as observed for sodium acetate elicitation
laminarin,fluorescent products induced in culture medium (TLC),[2],induced production of a blue fluorescent chemical with an Rf 0.78
